Laboratory results published in patent US20240025906A1 (NEURON23, INC., priority 2022, published 2024).

Columns and labels:
[1] = tested on: JAK1/TYK2 pSTAT5 (Tyr694/699) in THP-1 cell line; test: IFNa-stimulated JAK1/TYK2 pSTAT5 (Tyr694/699) inhibition cellular assay, AlphaLISA; assay type: cell-based; conditions: Homo sapiens; THP-1 cells, IFNa-stimulated, AlphaLISA (Assay B); read-out: Cellular_THP1_IFNa-pSTATS_TYK2
In short: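 THP-1 cells (2e4/well) in HBSS preincubated 1 h at 37° C. with compound (final 10000–0.04 nM, 8 points, 6-fold), then stimulated with IFNa (100 ng/mL stock) for 30 min before lysis. pSTAT5 (Tyr694/699) read by AlphaLISA at 615 nm; IC50 from four-parameter logistic fit with bottom fixed at 0 and Hill slope at −1.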

[2] = target: T1, TYK2 JH2 (Homo sapiens, UniProt P29597); test: TYK2 JH2 binding assay (KINOMEscan KdELECT competitive binding); conditions: TYK2 JH2 domain, KINOMEscan KdELECT (Assay A); read-out: Biochemical TYK2_DiscoverX_JH2_BND_Kd
T1 construct: purchased DiscoverX (KINOMEscan KdELECT service); host or cells: E. coli BL21-derived (T7 phage display) or HEK-293
T1 sequence (P29597 589-875 limits assumed): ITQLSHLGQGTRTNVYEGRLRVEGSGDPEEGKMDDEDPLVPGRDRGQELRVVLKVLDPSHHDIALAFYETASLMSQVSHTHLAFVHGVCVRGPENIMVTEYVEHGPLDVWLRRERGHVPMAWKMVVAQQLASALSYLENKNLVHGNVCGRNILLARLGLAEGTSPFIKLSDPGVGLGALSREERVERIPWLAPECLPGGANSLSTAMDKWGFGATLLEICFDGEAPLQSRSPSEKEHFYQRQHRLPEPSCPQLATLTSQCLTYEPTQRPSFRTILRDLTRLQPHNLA
In short: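 Kd values come from qPCR measurement of kinase retained on an immobilized-ligand resin after 1 h room-temperature competition with compound in an 11-point, 3-fold series.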

Row | Compound | IC50 [1] | Kd [2]
1 | CNc1ncc(C#Cc2ccc(P(C)(C)=O)cc2)c2cc(NC(=O)C3CC3)ncc12 [Example 769, N-(5-((4-(dimethylphosphoryl)phenyl)ethynyl)-8-(methylamino)-2,7-naphthyridin-3-yl)cyclopropanecarboxamide] | ≤ 500 nM | ≤ 100 nM
2 | CCC(=O)N1CC(Oc2ccc(C#Cc3cnc(NC)c4cnc(NC(=O)C5CC5)cc34)cc2)C1 [Example 770, N-(8-(methylamino)-5-((4-((1-propionylazetidin-3-yl)oxy)phenyl)ethynyl)-2,7-naphthyridin-3-yl) cyclopropanecarboxamide] | ≤ 500 nM | ≤ 100 nM
3 | CNc1ncc(C#Cc2ccc(OC3CN(C(=O)C4CC4)C3)cc2)c2cc(NC(=O)C3CC3)ncc12 [Example 771, N-(5-((4-((1-(cyclopropanecarbonyl)azetidin-3-yl)oxy)phenyl)ethynyl)-8-(methylamino)-2,7-naphthyridin-3-yl)cyclopropanecarboxamide] | ≤ 500 nM | ≤ 100 nM
4 | CNc1ncc(C#Cc2ccc(-n3nccn3)cc2)c2cc(NC(=O)C3CC3)ncc12 [Example 772, N-(5-((4-(2H-1,2,3-triazol-2-yl)phenyl)ethynyl)-8-(methylamino)-2,7-naphthyridin-3-yl)cyclopropanecarboxamide] | ≤ 500 nM | ≤ 100 nM
5 | CNc1ncc(C#Cc2ccc3nc(C(C)(F)F)n(C)c3c2)c2cc(NC(=O)C3CC3)ncc12 [Example 773, N-(5-((2-(1,1-difluoroethyl)-1-methyl-1H-benzo[d]imidazol-6-yl)ethynyl)-8-(methylamino)-2,7-naphthyridin-3-yl)cyclopropanecarboxamide] | ≤ 500 nM | ≤ 100 nM
6 | CNc1ncc(C#Cc2ccc3nc(CC(F)(F)F)n(C)c3c2)c2cc(NC(=O)C3CC3)ncc12 [Example 774, N-(5-((1-methyl-2-(2,2,2-trifluoroethyl)-1H-benzo[d]imidazol-6-yl)ethynyl)-8-(methylamino)-2,7-naphthyridin-3-yl)cyclopropanecarboxamide] | ≤ 500 nM | ≤ 100 nM
7 | CNc1ncc(C#Cc2ccc3nc(C(F)F)n(C)c3c2)c2cc(NC(=O)[C@H]3C[C@H]3C)ncc12 [Example 775, (1S,2R)—N-(5-((2-(difluoromethyl)-1-methyl-1H-benzo[d]imidazol-6-yl)ethynyl)-8-(methylamino)-2,7-naphthyridin-3-yl)-2-methylcyclopropane-1-carboxamide] | ≤ 500 nM | ≤ 100 nM
8 | [2H]C([2H])([2H])Nc1ncc(C#Cc2ccc(OC)cn2)c2cc(NC(=O)C3CC3)ncc12 [Example 778, N-(5-((5-methoxypyridin-2-yl)ethynyl)-8-((methyl-d3)amino)-2,7-naphthyridin-3-yl)cyclopropanecarboxamide] | ≤ 500 nM | ≤ 100 nM
9 | [2H]C([2H])([2H])Nc1ncc(C#Cc2ccc(OC)cn2)c2cc(NC(=O)[C@H]3C[C@H]3C)ncc12 [Example 779, (1S,2R)—N-(5-((5-methoxypyridin-2-yl)ethynyl)-8-((methyl-d3)amino)-2,7-naphthyridin-3-yl)-2-methylcyclopropane-1-carboxamide] | ≤ 500 nM | ≤ 100 nM
10 | CCc1nc(NC)c2cnc(NC(=O)C3CC3)cc2c1C#Cc1ccc(OC)cc1 [Example 780, N-(6-ethyl-5-((4-methoxyphenyl)ethynyl)-8-(methylamino)-2,7-naphthyridin-3-yl)cyclopropanecarboxamide] | > 500 nM | ≤ 100 nM
11 | CNc1nc(C)c(C#Cc2ccc(OC)cc2)c2cc(NC(=O)C3CC3)ncc12 [Example 781, N-(5-((4-methoxyphenyl)ethynyl)-6-methyl-8-(methylamino)-2,7-naphthyridin-3-yl)cyclopropanecarboxamide] | > 500 nM | ≤ 100 nM
12 | CNc1ncc(/C=C/c2ccc(OCCOC)cc2)c2cc(NC(=O)C3CC3)ncc12 [Example 782, (E)-N-(5-(4-(2-methoxyethoxy)styryl)-8-(methylamino)-2,7-naphthyridin-3-yl)cyclopropanecarboxamide] | ≤ 500 nM | ≤ 100 nM
13 | CNc1ncc(/C=C/c2ccc(CC#N)cc2)c2cc(NC(=O)C3CC3)ncc12 [Example 783, (E)-N-(5-(4-(cyanomethyl)styryl)-8-(methylamino)-2,7-naphthyridin-3-yl)cyclopropanecarboxamide] | ≤ 500 nM | ≤ 100 nM

The remaining lines, values ahead:

Row | IC50 [1] | Kd [2] | Compound
14 | ≤ 500 nM | ≤ 100 nM | CNc1ncc(/C=C/c2ccc(OCC(C)(C)O)cc2)c2cc(NC(=O)C3CC3)ncc12 [Example 784, (E)-N-(5-(4-(2-hydroxy-2-methylpropoxy)styryl)-8-(methylamino)-2,7-naphthyridin-3-yl)cyclopropanecarboxamide]
15 | > 500 nM | ≤ 100 nM | C=C(c1ccc(OCC(C)(C)O)cc1)c1cnc(NC)c2cnc(NC(=O)C3CC3)cc12 [Example 785, N-(5-(1-(4-(2-hydroxy-2-methylpropoxy)phenyl)vinyl)-8-(methylamino)-2,7-naphthyridin-3-yl)cyclopropanecarboxamide]
16 | ≤ 500 nM | ≤ 100 nM | CNc1ncc(/C=C/c2ccc(N3C[C@@H](C)O[C@@H](C)C3)cc2)c2cc(NC(=O)C3CC3)ncc12 [Example 786, N-(5-((E)-4-((2R,6S)-2,6-dimethylmorpholino)styryl)-8-(methylamino)-2,7-naphthyridin-3-yl)cyclopropanecarboxamide]
17 | ≤ 500 nM | ≤ 100 nM | CNc1ncc(/C=C/c2ccc(N3CCO[C@@H](C)C3)cc2)c2cc(NC(=O)C3CC3)ncc12 [Example 787, (S,E)-N-(8-(methylamino)-5-(4-(2-methylmorpholino)styryl)-2,7-naphthyridin-3-yl)cyclopropanecarboxamide]
18 | > 500 nM | 100 to 1000 nM | C=C(c1ccc(N2CCO[C@@H](C)C2)cc1)c1cnc(NC)c2cnc(NC(=O)C3CC3)cc12 [Example 788, (S)—N-(8-(methylamino)-5-(1-(4-(2-methylmorpholino)phenyl)vinyl)-2,7-naphthyridin-3-yl)cyclopropanecarboxamide]
19 | ≤ 500 nM | ≤ 100 nM | CNc1ncc(/C=C/c2ccc(N3CCOCC3)cc2)c2cc(NC(=O)C3CC3)ncc12 [Example 792, (E)-N-(8-(methylamino)-5-(4-morpholinostyryl)-2,7-naphthyridin-3-yl)cyclopropanecarboxamide]
20 | > 500 nM | ≤ 100 nM | C=C(c1ccc(N2CCOCC2)cc1)c1cnc(NC)c2cnc(NC(=O)C3CC3)cc12 [Example 793, N-(8-(methylamino)-5-(1-(4-morpholinophenyl)vinyl)-2,7-naphthyridin-3-yl)cyclopropanecarboxamide]
21 | ≤ 500 nM | ≤ 100 nM | CNc1ncc(/C=C/c2ccc(OCCC#N)cc2)c2cc(NC(=O)C3CC3)ncc12 [Example 794, (E)-N-(5-(4-(2-cyanoethoxy)styryl)-8-(methylamino)-2,7-naphthyridin-3-yl)cyclopropanecarboxamide]
22 | ≤ 500 nM | ≤ 100 nM | CNc1ncc(/C=C/c2ccc(O)cc2)c2cc(Nc3ccccn3)ncc12 [Example 795, (E)-4-(2-(1-(methylamino)-6-(pyridin-2-ylamino)-2,7-naphthyridin-4-yl)vinyl)phenol]
